Assay results published in US20230263773A1, “COMBINATION THERAPY WITH DEOXYURIDINE TRIPHOSPHATASE INHIBITORS” (CV6 Therapeutics (NI) Limited, priority 2020, published 2023).

Columns and labels:
Type in all cases: cell-based
[1] = system: PD-L1; assay: Total PD-L1 expression by Western blotting in cancer cell lines; details: 12.5 μM Compound A
Description: (§1) Experimental Overview. Programmed death-ligand 1 (PD-L1) is a type 1 transmembrane protein that plays a major role in suppressing the innate and adaptive arms of the immune system. The PD-1/PD-L1 pathway represents an adaptive immune resistance mechanism exerted by tumor cells in response to endogenous immune anti-tumor activity and is a well-established therapeutic target in cancer therapy. Cancer cells were treated with vehicle control (DMSO), the fluoropyrimidine FUdR (also known as floxuridine) alone, Compound A alone, or the combination of Compound A and FUdR, and the expression level of the immune checkpoint protein PD-L1 was measured by both Western blotting and flow cytometry and compared to control. Cell lines assayed for total PD-L1 protein expression by Western blotting included, pancreatic cancer, PANC-1; non-small cell lung cancer, H460; colorectal cancer, HCT116; breast cancer, MCF-7; melanoma, MeWo. Two cell lines were advanced to analyze cell surface PD-L1 by flow cytometry, MCF-7 and PANC-1.
Western Blotting. Cells were cultured in the presence of the indicated concentrations of Compound A, 5-fluorodeoxyuridine (FUdR), or a combination of both in a P100 cell culture dishes for 12 or 24 hours. At the conclusion of specified time-points, cells were scraped in PBS containing NaF and Na3VO4, pelleted by centrifugation, washed with PBS and pelleted again. […] The concentration of the isolated supernatant was determined by BCA assay on a CLARIOstar microplate reader and the required volume of whole-cell lysate was denatured by the addition of Sample Buffer, Laemmli 2×Concentrate followed by boiling at 95° C. for 5 min. […] Images were analyzed in ImageJ to obtain PD-L1 relative density values which were normalised to relative density of loading control. Once the primary image acquisition was complete, the pre-cast gels and corresponding immunoblots were further imaged for total protein as a quality control measure following a UV-induced 1-minute reaction to produce fluorescence. […]

[2] = system: PD-L1; assay: Cell-surface PD-L1 expression by flow cytometry; details: 12.5 μM Compound A, 1 μM FUdR; 24 hours
Description: as §1
Cell Surface Flow Cytometry. Cells were seeded in 6-well plates and permitted to adhere overnight. Media was removed and replaced with media containing the indicated concentrations of Compound A, FUdR or a combination of both, positive control cells were treated with IFNγ. Cells were then incubated for 24 hours. At the conclusion of specified timepoints, cells were washed with PBS and removed from the plates using trypsin-EDTA. Cells were counted and 300,000 cells were washed in staining buffer and incubated in PD-L1 or IgG antibody on ice for 40 minutes. Cells were then washed in staining buffer twice and finally resuspended in 300 μL of staining buffer and transferred to BD Falcon™ round-bottom tube. Dot plot for FSC v SSC were used to gate cell population and doublets were excluded on FL-4 histogram height versus area/width. IgG isotype control stained sample was used to identify the positively stained population. Percentage positive population and median fluorescent intensity values were exported and analyzed in Microsoft Excel and GraphPad Prism 6. Statistical analysis consisted of one-way ANOVA with Tukey's multiple comparisons testing.

[3] = system: HMGB1; assay: Extracellular release of HMGB1 into cell culture media by ELISA; details: 12.5 μM Compound A, 1 μM FUdR; 24 hours
Source text: Experimental Overview. High mobility group box 1 (HMGB1) is a nuclear non-histone chromatin-binding protein. The release of HMGB1 by immune cells or severely damaged cancer cells functions as an immunostimulatory chemokine and is a well-known damage-associated molecular pattern (DAMP). The release of HMGB1 during cell death is characteristic of immunogenic cell death, a sub-class of cell death that results in the potent stimulation of the innate and subsequently the stimulation of adaptive immune responses. HMGB1 functions as a pro-inflammatory cytokine-like factor and can form hetero-complexes with other immune regulators. HMGB1 binds to TLRs, RAGE and CXCR4 on immune cells stimulating chemotaxis and the secretion of pro-inflammatory factors. HCT116 colon carcinoma and JU77 mesothelioma cells were treated with vehicle control (DMSO), 12.5 μM Compound A, 1 μM FUdR, or the combination of 12.5 μM Compound A and 1 μM FUdR for 24 hours and the release of HMGB1 into the extracellular culture media was measured by ELISA.
Cell Line Model Selection and Preparation. The HCT116 cancer cell line was purchased from ATCC. JU77 cell line was a kind gift from Dr Dan Longley, QUB. Cells were cultured and expanded in humidified incubators at 5% CO2 until sufficient cells were available.
Drug Preparation and Treatments. All drugs/compounds were prepared freshly in cell culture media from 50 mM frozen stocks prior to treatment. Cells were seeded in 6-well culture dishes and allowed to adhere overnight before treatment with Compound A, FUdR, or Compound A in combination with FUdR. Additional wells were treated with doxorubicin to act as a positive inducer of HMGB1. Twenty-four hours after treatment, the media was aspirated and centrifuged (2500 rpm, 5 min, at 4° C.) to remove any cellular debris. The supernatant was collected for immediate processing or stored at −80° C. for later assay.
Detection of HMGB1 Release. HMGB1 was quantified using the HMGB1 ELISA kit (ST51011, IBL International). Enzyme conjugate (HMGB1 conjugated to peroxidase) and standard were reconstituted in 12 ml enzyme conjugate diluent, and 1 ml diluent buffer respectively and aliquots frozen at −80° C. until required. All reagents and samples were brought to room temperature immediately prior to use. A standard curve was prepared for the high sensitive detection range (0.313-10 ng/ml). 50 μl diluent buffer was pipetted into each well of the microtiter plate. 50 μl of standard, sample, positive control or negative control (diluent buffer) was pipetted, in duplicate, into respective wells as determined by the plate set up. The plate was covered with adhesive foil and incubated at 37° C. for 20 to 24 hours on an orbital shaker (450 rpm). Following the incubation period the incubation solution was discarded and the plate washed (5×300 μl per well). Excess wash buffer was removed by inversion on to a paper towel. 100 μl enzyme conjugate was added to each well, the plate covered with adhesive foil and incubated at 25° C. for 2 hours on an orbital shaker (450 rpm). Following the incubation the solution was discarded and the plate washed as before. Fresh color solution was prepared immediately prior to use and 100 μl added to each well using a multichannel pipette. The plate was then incubated for 30 minutes at room temperature. The color reaction was stopped by pipetting 100 μl of stop reagent to each well using a multichannel pipette. The plate was shaken gently to mix and the backs of the wells were cleaned using a lint-free tissue. The concentration of HMGB1 was determined on a CLARIOstar microplate reader by measuring the absorbance at 450 nm using a reference reading at 640 nm. Data was exported to Microsoft Excel for processing and statistical analysis consisting of one-way ANOVA with Tukey's Multiple Comparisons Test was performed in GraphPad Prism 6.

[4] = system: calreticulin; assay: Cell surface calreticulin by flow cytometry; details: 6.25 μM Compound A, 1 μM FUdR, 500 nmol/L doxorubicin; 4 hours
Source text: Experimental Overview. Tumor cells undergoing immunogenic cell death (ICD) emit damage associated molecular patterns (DAMPs). ICD is a sub-class of cell death that results in the potent stimulation of the innate immune system and subsequently the stimulation of adaptive immune responses. The cell surface expression of calreticulin during cell death is one of several established DAMPs characteristic of immunogenic cell death. Calreticulin translocates from the endoplasmic reticulin to the cell membrane where it functions as a potent “eat me” signal for macrophages and dictates tumor antigen transfer and therefore the immunogenicity of cancer cell death. PANC1 pancreatic carcinoma cells were treated with vehicle control (DMSO), 6.25 μM Compound A, 1 μM FUdR, or the combination of 6.25 μM Compound A and 1 μM FUdR for 4 hours and the concentration of cell surface calreticulin was deteremined by flow cytometry.
Cell Line Model Selection and Preparation. The PANC1 pancreatic cancer cell line was purchased from ATCC. Cells were cultured and expanded in humidified incubators at 5% CO2 until sufficient cells were available.
Drug Preparation and Treatments. All drugs/compounds were prepared freshly in cell culture media from 50 mM frozen stocks prior to treatment. Cells were seeded in 6-well plates and permitted to adhere overnight. Media was removed and replaced with media containing 6.25 μM Compound A, 1 μM FUdR or a combination of 6.25 μM Compound A and 1 μM FUdR. […]
Detection of Cell Surface Calreticulin. Cell surface calreticulin was quantified by flow cytometry. […] Cells were counted and 300,000 cells were washed in staining buffer and incubated in Calreticulin (D3E6) XP Alexa Fluor 488 Conjugate antibody (Cell Signaling) or IgG antibody (negative control antibody) on ice for 40 minutes. […] The IgG isotype control stained sample was used to correctly identify the positively stained population in which median fluorescence intensity was determined. Median fluorescence intensity values were exported and analyzed in Microsoft Excel and GraphPad Prism 6. […]

[5] = system: cytoplasmic dsDNA; assay: Cytoplasmic dsDNA by fluorescence microscopy; details: 12.5 μM Compound A, 1 μM FUdR; 24 hours
Description: Experimental Overview. Aberrant host DNA metabolism as a result of failed cell division or genotoxic stress leads to the release of nuclear DNA into the cytoplasm and is a well-known damage-associated molecular pattern. The subsequent detection of cytoplasmic double-stranded DNA (dsDNA) by pattern recognition receptors triggers a variety of innate immune signaling and biological responses. HCT116 colon and PANC-1 pancreatic carcinoma cells were seeded on coverslips and treated with vehicle control (DMSO), 12.5 μM Compound A, 1 μM FUdR, or the combination of 12.5 μM Compound A and 1 μM FUdR for 24 hours. At 24 hours post-treatment cells were fixed and stained with an anti-dsDNA (double-stranded DNA) antibody and the nuclear stain DAPI. Immunofluorescence was detected and images acquired by fluorescence microscopy to quantify levels of dsDNA in the cytoplasm.
Cell lines, Drug Treatments and Fluorescence Microscopy. HCT116 colon and PANC-1 pancreatic carcinoma cells (5×10^4) were seeded onto glass coverslips within 24-well plates in relevant media. The following day, seeding media was removed and replaced with drug-containing media and incubated for 24 hours. At 24 […] hours post-treatment cells were fixed and processed. Briefly, cell membranes were permeabilised, incubated with FITC-conjugated dsDNA marker antibody (HYB331-01) from Santa Cruz Biotechnology, sc-58749 (1:500 dilution) and mounted onto slides with ProLong Gold antifade with DAPI (Invitrogen P36931). Images were acquired on a Nikon Fluorescent Microscope. Exposure time was selected for FITC using negative and positive controls and kept constant throughout image acquisition. Images were analyzed using ImageJ software. Cell nuclei were identified using DAPI staining. Intensity of cytoplasmic dsDNA staining was established by quantifying the intensity of the staining in the immediate area surrounding the nucleus. Software settings: Gaps to ring=3 and Ring size=25 (FIG. 16).

SMILES | total PD-L1 expression, all cell lines ([1]; MeWo, MCF-7, HCT116, H460, PANC-1, 12 and 24 hours) | increase in cell-surface PD-L1 expression compared to control, MCF-7 cells [2] | increase in cell-surface PD-L1 expression compared to control, PANC-1 cells [2] | increase in concentration of HMGB1 in cell culture media compared to control, HCT116 cells [3] | increase in concentration of HMGB1 in cell culture media compared to control, JU77 cells [3] | increase in cell surface expression of calreticulin compared to control, PANC1 cells [4] | increase in mean relative cytoplasmic DNA compared to vehicle-treated control, HCT116 cells [5] | increase in mean relative cytoplasmic DNA compared to vehicle-treated control, PANC-1 cells [5] [%] | total PD-L1 expression in HCT116, MCF-7, PANC-1 and Mewo cell lines ([1]; 1 μM FUdR, 12 and 24 hours, compared to control) | total PD-L1 expression in H460 cell line ([1]; PD-L1 high at baseline, 1 μM FUdR)
C[C@@H](NS(=O)(=O)CCCCCN1CC(=O)NC1=O)c1ccc(F)c(OCC2CC2)c1 [Compound A] | unchanged | No significant difference | the same as vehicle control cells | no significant difference | no significant difference | no significant difference | no statistically significant difference | 74 |  | 
O=c1[nH]c(=O)n([C@H]2C[C@H](O)[C@@H](CO)O2)cc1F [FUdR] |  | 4.7 fold | ~10 fold | no significant difference | no significant difference | no significant difference | no statistically significant difference | 56 | significant increase | did not induce
COc1cccc2c1C(=O)c1c(O)c3c(c(O)c1C2=O)C[C@@](O)(C(=O)CO)C[C@@H]3O[C@H]1C[C@H](N)[C@H](O)[C@H](C)O1 [doxorubicin] |  |  |  | 213% | failed to elicit any significant increase | 450% |  |  |  | 
